Results as given in patent US6521776B2, “Immunological adjuvant compounds compositions and methods of use thereof” (Eisai Company, Limited, priority 2000, dated 2003).
Read-outs that look alike come from different tables or passages of the source.

Assays:
TNF-α = test: Induction of cytokines in vitro: TNF-α release in human whole blood (ELISA); assay type: cell-based; conditions: read-out: TNFa Stimulation Value
Procedure: The ability to trigger a stimulatory response in macrophages is likely a necessary characteristic of molecules with imunoadjuvant properties. Therefore, the ability of compounds to stimulate release of TNF-α and other cytokines from immune cells is tested as an indication of their ability to stimulate an immune response, which may result in adjuvant activity.
The most readily available human system to test compound activity on monocytes/macrophages is in whole blood. Various concentrations of compounds of the invention were added as 10×stocks in 50 μl of 5% dextrose followed by 50 μl of 5% dextrose into 400 μl of heparinized whole blood obtained from normal volunteers (18-51 years old; 110-230 lb) into the wells of plastic assay plates, for a total volume of 500 μl/well (final concentration of whole blood was 80%). The 10×stocks were made by dissolving compounds to 1 mM in water and sonicating them for 2 minutes in an ice bath. The compounds were then brought to 10× in 5% dextrose. After a 3-hour incubation with gentle shaking at 37° C. in a 5% CO2 atmosphere, the assay plates were centrifuged at 1000×g for 10 minutes at 4° C. and plasma was drawn off and frozen at −80° C. Plasma samples were analyzed for TNF-α by ELISA (R & D Systems, Minneapolis, Minn.). Each assay point was tested in triplicate.
The stimulatory value is the compound concentration needed to stimulate TNF-α release equal to half the release obtained from the same whole blood sample with 10 ng/ml of LPS.

[1] = system: tetanus toxoid-specific IgG; design: species or system Balb/c mice; conditions: mouse, in vivo, sc

CCCCCCCCCCCCC/C=C/[C@@H](OC(=O)CCCCCCCCCCC)[C@H](COP(=O)(O)OCCNC(=O)NCCOP(=O)(O)OC[C@H](NC(=O)CCCCCCCCCCCCC)[C@@H](/C=C/CCCCCCCCCCCCC)OC(=O)CCCCCCCCCCC)NC(=O)CCCCCCCCCCCCC (single isomer, unassigned) [ER-805270]
EC50 (TNF-α; compound concentration needed to stimulate TNF-α release equal to half the release obtained with 10 ng/ml LPS, 80% heparinized human whole blood, 3-hour incubation, 37° C.): > 10000 nM

CCCCCCCCCCCCCC(=O)N[C@@H](COP(=O)([O-])OCCNC(=O)NCCOP(=O)([O-])OC[C@H](NC(=O)CCCCCCCCCCCCC)[C@H](CCCCCCCCCCC)OC(=O)CCCCCCCCCCC)[C@H](CCCCCCCCCCC)OC(=O)CCCCCCCCCCC.[Na+].[Na+] [ER-804874]
EC50 (TNF-α; Homo sapiens, 3 h): 9 nM | Mean concentration of tetanus toxoid-specific IgG (6 mice/group) [1]: 5640 µg/mL

CCCCCCCCCCCCC/C=C/[C@@H](OC(=O)CCCCCCCCCCC)[C@H](COP(=O)([O-])OCCNC(=O)NCCOP(=O)([O-])OC[C@H](NC(=O)CCCCCCCCCCCCC)[C@@H](/C=C/CCCCCCCCCCCCC)OC(=O)CCCCCCCCCCC)NC(=O)CCCCCCCCCCCCC.[Na+].[Na+] [ER-805270]
Mean concentration of tetanus toxoid-specific IgG (6 mice/group) [1]: 1995 µg/mL

CCCCCCCCCCCCC(=O)O[C@H](CCOP(=O)([O-])OCCNC(=O)NCCOP(=O)([O-])OCC[C@@H](OC(=O)CCCCCCCCCCCC)C(CCCCCCCCCC)OC(=O)CCCCCCCCCC)C(CCCCCCCCCC)OC(=O)CCCCCCCCCC.[Na+].[Na+] (stereo partly shown) [ER-805271]
EC50 (TNF-α; Homo sapiens, 3 h): 1600 nM | Mean concentration of tetanus toxoid-specific IgG (6 mice/group) [1]: 2010 µg/mL

CCCCCCCCCCCCC(=O)N[C@@H](CCOP(=O)([O-])OCCNC(=O)NCCOP(=O)([O-])OCC[C@H](NC(=O)CCCCCCCCCCCC)C(CCCCCCCCCC)OC(=O)CCCCCCCCCC)C(CCCCCCCCCC)OC(=O)CCCCCCCCCC.[Na+].[Na+] (stereo partly shown) [ER-805274]
EC50 (TNF-α; Homo sapiens, 3 h): 14 nM | Mean concentration of tetanus toxoid-specific IgG (6 mice/group) [1]: 3218 µg/mL

CCCCCCCCCCCCCC(=O)NC(CCCCCCCCC)CC[C@@H](COP(=O)(O)OCCNC(=O)NCCOP(=O)(O)OC[C@H](CCC(CCCCCCCCC)NC(=O)CCCCCCCCCCCCC)OC(=O)CCCCCCCCCCCCC)OC(=O)CCCCCCCCCCCCC (stereo partly shown) [ER-805328]
EC50 (TNF-α; Homo sapiens, 3 h): 205 nM

CCCCCCCCCCCCCC(=O)N[C@H](CCCC(CCCCCCCC)OC(=O)CCCCCCCCCCCC)COP(=O)(O)OCCNC(=O)NCCOP(=O)(O)OC[C@@H](CCCC(CCCCCCCC)OC(=O)CCCCCCCCCCCC)NC(=O)CCCCCCCCCCCCC (stereo partly shown) [ER-805517]
EC50 (TNF-α; Homo sapiens, 3 h): 70 nM
